Measurements: US10709677B2, “Therapeutic uses of benzylideneguanidine derivatives for the treatment of proteopathies” (InFlectis BioScience, priority 2014, dated 2020)

Legend:
HeLa cells [1] = assay: Cytoprotection from ER stress (tunicamycin, WST-8 cell viability); format: cell-based; conditions: 6 hour exposure of tunicamycin 5 μg/mL, inhibitors 0.5-10 μM, viability 48 h or 72 h after
From the text: Cytoprotection against ER stress can be measured by a suitable assay. For example, cytoprotection can be measured in HeLa cells in which ER stress is elicited by the addition of media containing tunicamycin, a mixture of homologous nucleoside antibiotics that inhibits the UDP-HexNAc: polyprenol-P HexNAc-1-P family of enzymes and is used to induce unfolded protein response. Cell viability can be detected in the presence and absence of inhibitor compounds after a set period of time, by measuring the reduction of WST-8 into formazan using a standard cell viability kit (such as Cell Viability Counting Kit-8 from Dojindo). The person skilled in the art may use other class of tetrazolium compounds such as MTT, MTS, XTT. Cytoprotection from ER stress is measured in terms of the percentage increase in viable cells (relative to control) after ER stress. Alternative cell viability assays may be used such as luminogenic ATP assay. Further details of a suitable assay are set forth in the accompanying Examples section.
HeLa Cells were cultured in Eagle's Minimum Essential Medium (EMEM) supplemented with Glutamine, Sodium Pyruvate, Non-Essential Amino Acids, Penicillin and Streptomycin containing 10% Fœtal Bovine Serum (FBS), at 37° C. in 5% CO2 atmosphere. Cells were plated in 96 well plates at a density of 17,000 cells/mL the day before the treatment. ER stress was elicited by addition of 5 μg/mL tunicamycin (Sigma-Aldrich) together with the phosphatases inhibitors (0.5-10 μM). Media were changed 6 h later with fresh media and the cytoprotection was maintained by the addition of the phosphatases inhibitors (0.5-10 μM). Cell viability was assessed by measuring the reduction of WST-8 into formazan using Cell Counting Kit-8 (Sigma) according to the supplier's recommendation, 48 h or 72 h after tunicamycin treatment.

HeLa cells [2] = assay: Assessment of translation rates in unstressed cells; format: cell-based; conditions: compounds 50 μM for 2.5, 5 and 9 h
Experimental: Culture medium was replaced by methionine-free DMEM medium (Invitrogen) 30 min before compounds addition. One hour before each time point, 50 μM of Click-iT® AHA (L-azidohomoalanine) (Invitrogen) was added to the culture medium in order to label newly synthesized proteins. At the end of each time point, cells were washed with ice-cold PBS and harvested by Trypsine dissociation (Lonza), then lysed in a 50 mM Tris-HCl buffer containing 1% of SDS (Sigma) and protease and phosphatase inhibitors (Sigma). Protein samples were coupled to alkyne biotin (Invitrogen) using Click-iT® Protein Reaction Buffer Kit (Invitrogen). Samples were denatured at 70° C. for 10 min, resolved on ECL 4-20% precasted gels (GE Healthcare) and transferred to nitrocellulose membranes (GE Healthcare). Alkyne biotin coupled to Click-iT® AHA incorporated to newly synthesized proteins was detected using streptavidin-HRP (Gentex). Revelation was performed by incubation of ECL Prime (GE Healthcare) and read by chemoluminiscence using Fusion Solo 3S (Vilber Lourmat).

Min6 cells = assay: Protection against accumulation of misfold prone Insulin Akita in Min6 cells; format: cell-based; conditions: viability 9 days after treatment
Experimental: Min6 cells were nucleofected with Insulin^Akita a mutant constructs and seeded in 96 well-plates at 300,000 cells/mL and 24 h later, cells were treated with molecules or left untreated. As a control, cells were nucleofected with non-relevant plasmid. 6 days later, a selective agent was added (G418).
Cell viability was assessed by measuring the reduction of WST-8 into formazan using Cell Counting Kit-8 (Sigma) according to the supplier's recommendation, 9 days after treatment.

Min6 insulinoma cell = assay: Cytoprotection from ER stress (tunicamycin) in Min6 cell line; format: cell-based; conditions: 6 hour exposure to tunicamycin, different concentrations
Experimental: (§1) Cells were plated in 96 well plates at a density of 0.5·10^6 cells/mL for Min6 cell line, 0.4·10^6 cells/mL for INS1 cell line the day before the treatment.
(§2) ER stress was elicited by addition of 2.5 μg/mL tunicamycin (Sigma Aldrich) together with phosphatases inhibitors.
(§3) Media were changed 6 h later with fresh media and the cytoprotection was maintained by the addition of phosphatases inhibitors.
(§4) Cell viability was assessed by measuring the reduction of WST-8 into formazan using Cell Counting Kit-8 (Sigma) according to the supplier's recommendation, 72 h after tunicamycin treatment.

[3] = tested on: mouse embryonic fibroblasts lipofected with poly I:C; assay: In vitro inflammation/infection model: poly I:C induced mouse embryonic fibroblasts; format: cell-based; conditions: 25 μM, 6 h, IFN-beta ELISA
Experimental: After 6 h of culture, eIF2alpha-phosphorylation (eIF2α-P) and PPP1R15A (GADD34) expression was monitored by western blotting, while type-I Interferon (IFN)-beta production was quantified in culture supernatants by ELISA. Control (nt) and poly I:C/DMSO are respectively negative and positive controls.
MEFs were cultured in DMEM, 10% FCS (HyClone, Perbio), 100 units/ml penicillin, 100 μg/ml streptomycin, 2 mM glutamine, 1×MEM non-essential amino acids and 50 μM 2-mercaptoethanol. MEFS were treated for the indicated time with 10 μg/ml poly I:C (InvivoGen) in combination with lipofectamine 2000 (Invitrogen).
Cells were lysed in 1% Triton X-100, 50 mM Hepes, 10 mM NaCl, 2.5 mM MgCl2, 2 mM EDTA, 10% glycerol, supplemented with Complete Mini Protease Inhibitor Cocktail Tablets (Roche). Protein quantification was performed using the BCA Protein Assay (Pierce). […] Rabbit polyclonal antibodies recognizing GADD34 (C-19) were from Santa Cruz Biotechnology and anti-eIF2alpha[pS^52] were from Invitrogen.
IFN-beta quantification in culture supernatant was performed using the Mouse Interferon Beta ELISA kit (PBL Interferon Source) according to manufacturer instructions.

INS1 insulinoma cell = assay: Cytoprotection from ER stress (tunicamycin) in INS1 cell line; format: cell-based; conditions: 6 hour exposure to tunicamycin, different concentrations
Experimental: as §1, §2, §3, §4

HeLa cells [4] = conditions: tunicamycin, Tsaytler et al., Science 2011, cited from earlier work; for protection of cells from cytotoxic ER stress: HeLa cells
human alpha2A receptor = biological target: T1, human alpha2A receptor (Homo sapiens, UniProt P08913); assay: Functional GPCR assay for adrenergic α2A receptor (CellKey detection method); format: cell-based; conditions: agonist activity, CHO cells, impedance; EC50>33.3 μM considered no significant alpha-2 adrenergic activity; read-out: Functional adrenergic alpha2 receptor assay EC50
T1 construct: CHO cells endogenously expressing human alpha2A receptor; endogenous in cells; host or cells: CHO cells
T1 sequence (P08913 1-465): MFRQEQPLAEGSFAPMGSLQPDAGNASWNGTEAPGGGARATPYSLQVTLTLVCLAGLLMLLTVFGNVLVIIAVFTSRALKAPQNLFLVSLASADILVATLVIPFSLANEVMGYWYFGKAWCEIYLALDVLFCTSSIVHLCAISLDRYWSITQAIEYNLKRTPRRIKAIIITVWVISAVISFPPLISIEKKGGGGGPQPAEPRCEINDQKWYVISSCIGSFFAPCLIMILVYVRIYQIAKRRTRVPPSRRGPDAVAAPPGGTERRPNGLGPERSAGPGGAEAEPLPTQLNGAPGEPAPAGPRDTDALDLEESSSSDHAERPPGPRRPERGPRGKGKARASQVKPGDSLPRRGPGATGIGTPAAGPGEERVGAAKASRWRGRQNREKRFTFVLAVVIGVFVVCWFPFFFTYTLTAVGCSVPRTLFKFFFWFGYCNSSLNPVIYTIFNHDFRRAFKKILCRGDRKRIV

Row | SMILES | Cytoprotection from ER stress compared to guanabenz (HeLa cells [1]) | Translation inhibition in non-stressed cells (HeLa cells [2]) | other results
1 | N=C(N)N/N=C/c1ccccc1Br [Compound 3, 2-(2-bromobenzylidene) hydrazinecarboximidamide] | ++ | no effect | 
2 | N=C(N)N/N=C/c1ccncc1Cl [Compound 6, 2-[(3-chloropyridin-4-yl)methylidene]hydrazinecarboximidamide] | + | no effect | cell death associated with accumulation of misfold prone Insulin Akita (FIG. 8) (Min6 cells): prevent cell death; Min6 insulinoma cell death induced by tunicamycin (FIG. 9) (Min6 insulinoma cell): prevent Min6 insulinoma cell death; type-I IFN production (FIG. 13) [3]: prevent type-I IFN production; INS1 insulinoma cell death induced by tunicamycin (FIG. 10) (INS1 insulinoma cell): prevent INS1 insulinoma cell death
3 | COc1ccccc1/C=N/NC(=N)N [Compound 4, 2-(2-methoxybenzylidene) hydrazinecarboximidamide] | + |  | 
4 | CC(=O)O.N=C(N)N/N=C/c1c(F)cccc1Cl [Compound 8, 2-(2-chloro-6-fluorobenzylidene)hydrazinecarboximidamide acetate] | ++ | no effect | type-I IFN production (FIG. 13) [3]: prevent type-I IFN production
5 | CCC1(C2=NCCN2)Cc2ccccc2O1 (stereo not shown) [efaroxan] |  |  | protection of cells from cytotoxic ER stress (HeLa cells [4]): Neither the α2-adrenergic receptor agonist clonidine, nor the α2-adrenergic receptor antagonist efaroxan protected cells
6 | Clc1cccc(Cl)c1N=C1NCCN1 [clonidine] |  |  | protection of cells from cytotoxic ER stress (HeLa cells [4]): Neither the α2-adrenergic receptor agonist clonidine, nor the α2-adrenergic receptor antagonist efaroxan protected cells
7 | NC(N)=N/N=C/c1c(Cl)cccc1Cl [guanabenz, 2-(2,6-dichlorobenzylidene)hydrazinecarboximidamide] |  |  | protection of cells from cytotoxic ER stress (HeLa cells [4]): doubled the number of cells surviving ER stress; EC50 (HeLa cells [4]; read-out: median effective concentration, survival of HeLa cells exposed to ER stress): ~400 nM
8 | CC(=O)O.N=C(N)N/N=C/c1ccncc1Cl [Compound 7, 2-[(3-chloropyridin-4-yl)methylidene]hydrazinecarboximidamide acetate] | ++ | no effect | EC50 (human alpha2A receptor): > 33300 nM
9 | Cc1ccc(/C=N/NC(=N)N)c(Cl)c1 [Compound 9, 2-(2-chloro-4-methylbenzylidene)hydrazinecarboximidamide] | − |  | 
10 | Cc1ccc(Cl)c(/C=N/NC(=N)N)c1 [Compound 10, 2-(2-chloro-5-methylbenzylidene)hydrazinecarboximidamide] | + |  | 
11 | Cc1cccc(/C=N/NC(=N)N)c1Cl [Compound 11, 2-(2-chloro-3-methylbenzylidene)hydrazinecarboximidamide] | + |  | 
